Test results: patent US20090105124A1, “HETEROCYCLIC MODULATORS OF TGR5” (Kalypsys, Inc., priority 2007, published 2009)

Biological target: T1, human TGR5 (Homo sapiens, UniProt Q8TDU6)
T1 construct: expressed in transfected cells
T1 sequence (Q8TDU6 1-330): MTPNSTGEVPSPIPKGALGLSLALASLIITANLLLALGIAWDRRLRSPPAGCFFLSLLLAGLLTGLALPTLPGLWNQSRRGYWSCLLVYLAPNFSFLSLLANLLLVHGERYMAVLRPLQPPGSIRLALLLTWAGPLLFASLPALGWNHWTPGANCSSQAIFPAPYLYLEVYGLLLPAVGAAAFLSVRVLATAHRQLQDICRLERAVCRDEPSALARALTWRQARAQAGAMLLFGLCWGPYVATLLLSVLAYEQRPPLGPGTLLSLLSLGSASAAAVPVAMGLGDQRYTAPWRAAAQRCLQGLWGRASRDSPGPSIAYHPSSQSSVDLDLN
Assay: cAMP production assay in HEK293 cells stably expressing TGR5 (LANCE cAMP, TR-FRET)
Assay type: cell-based
Settings: stimulated with test compounds for 30 minutes, 1 mM IBMX, read-out: cAMP Production in 293-TGR5 Cells
Description: HEK293 cells stably expressing TGR5 (HEK293-TGR5) were established by stably transfecting HEK-293 cells with an expression vector (pcDNA 3.1, Invetrogen) inserted with human TGR5 cDNA using Fugene6 (Roche, Indianapolis, Ind.) according to conventional methods. Cells were grown in DMEM (invitrogen, Carlsbad, Calif.) supplemented with 10% FBS, 1% penicillin/streptomycin under geneticin selection. The presence of TGR5 transcripts in these cells was confirmed using branched DNA (bDNA, Genospectra, Inc., Fremont Calif.) following the manufacturer's protocol and using specific probes for human TGR5. cAMP production assay was performed in high throughput 1536 well format using LANCE cAMP detection kit (Perkin Elmer Inc., Boston, Mass.) according to the manufacturer's protocol. Briefly, HEK293-TGR5 cells were harvested using non-enzymatic cell dissociation buffer (Invitrogen, Carlsbad, Calif.) and suspended in DMEM supplemented with 0.1% FBS at a density of 800,000 cells/ml. Alexa antibody was added to the cell suspension, and 4 ul of the mixture was dispensed in white opaque tissue culture treated Greiner 1536 well plates (USA Scientific, Inc., Ocala, Fla.). After an overnight incubation at 37 C in an atmosphere of 10% CO2 and 95% humidity, 1 ul of 5 mM IBMX (Sigma, St. Louis, Mo.) solution in DMEM was dispensed for a final concentration of 1 mM. Cells were then stimulated with test compounds for 30 minutes, after which time 5 ul of detection reagent was added and incubated for 1-7 hrs at room temperature. TR-FRET signal was detected using the Viewlux (Perkin Elmer Inc., Boston Mass.). EC50 values were determined using Graph Pad Prizm analysis (GraphPad Software, Inc). The EC50 values for a wide range of bile acids generated from this assay were in agreement with the values published in the scientific literature. […] The symbol (+) denotes an EC50 value of ≦10 μM while the symbol (−) denotes an EC50 value of >10 μM (see Table 1).

EC50 [µM] | Structure (SMILES)
≤ 10 | O=c1c2cccnc2nc(-c2cncc(Cl)c2)n1NCc1ccc(Cl)cc1F [Example 1, 3-{[(4-Chloro-2-fluorophenyl)methyl]amino}-2-(5-chloropyridin-3-yl)-3H,4H-pyrido[2,3-d]pyrimidin-4-one]
≤ 10 | O=c1c2cccnc2nc(-c2ccccc2F)n1NCc1ccc(Cl)cc1 [Example 2, 3-{[(4-Chlorophenyl)methyl]amino}-2-(2-fluorophenyl)-3H,4H-pyrido[2,3-d]pyrimidin-4-one]
≤ 10 | COc1cccc(-c2nc3ncccc3c(=O)n2NCc2ccc(Cl)cc2)c1 [Example 3, 3-{[(4-Chlorophenyl)methyl]amino}-2-(3-methoxyphenyl)-3H,4H-pyrido[2,3-d]pyrimidin-4-one]
≤ 10 | O=c1c2cccnc2nc(-c2ccc(F)cc2)n1NCc1ccc(Br)cc1 [Example 4, 3-{[(4-Bromophenyl)methyl]amino}-2-(4-fluorophenyl)-3H,4H-pyrido[2,3-d]pyrimidin-4-one]
≤ 10 | COc1ccc(-c2nc3ncccc3c(=O)n2NCc2ccc(Br)cc2)cc1 [Example 5, 3-{[(4-Bromophenyl)methyl]amino}-2-(4-methoxyphenyl)-3H,4H-pyrido[2,3-d]pyrimidin-4-one]
≤ 10 | O=c1c2cccnc2nc(-c2ccc(O)cc2)n1NCc1ccc(Br)cc1 [Example 6, 3-{[(4-Bromophenyl)methyl]amino}-2-(4-hydroxyphenyl)-3H,4H-pyrido[2,3-d]pyrimidin-4-one]
≤ 10 | O=c1c2cccnc2nc(-c2cccnc2)n1NCc1ccc(Cl)cc1 [Example 7, 3-{[(4-Chlorophenyl)methyl]amino}-2-(pyridin-3-yl)-3H,4H-pyrido[2,3-d]pyrimidin-4-one]
≤ 10 | O=c1c2cccnc2nc(-c2cncc(Cl)c2)n1NCc1ccc(Cl)cc1 [Example 8, 3-{[(4-Chlorophenyl)methyl]amino}-2-(5-chloropyridin-3-yl)-3H,4H-pyrido[2,3-d]pyrimidin-4-one]
≤ 10 | COc1cncc(-c2nc3ncccc3c(=O)n2NCc2ccc(Cl)cc2)c1 [Example 9, 3-{[(4-Chlorophenyl)methyl]amino}-2-(5-methoxypyridin-3-yl)-3H,4H-pyrido[2,3-d]pyrimidin-4-one]
≤ 10 | O=c1c2cccnc2nc(-c2ccc(F)cc2)n1NCc1ccc(Cl)cc1 [Example 10, 3-{[(4-Chlorophenyl)methyl]amino}-2-(4-fluorophenyl)-3H,4H-pyrido[2,3-d]pyrimidin-4-one]
≤ 10 | O=c1c2cccnc2nc(-c2ccc(F)cc2)n1NCc1ccc(C(F)(F)F)cc1 [Example 11, 2-(4-Fluorophenyl)-3-({[4-(trifluoromethyl)phenyl]methyl}amino)-3H,4H-pyrido[2,3-d]pyrimidin-4-one]
≤ 10 | O=c1c2cccnc2nc(-c2ccc(F)cc2)n1NCc1ccc(F)c(F)c1 [Example 12, 3-{[(3,4-Difluorophenyl)methyl]amino}-2-(4-fluorophenyl)-3H,4H-pyrido[2,3-d]pyrimidin-4-one]
≤ 10 | COc1cc(-c2nc3ncccc3c(=O)n2NCc2ccc(Br)cc2)ccc1C [Example 13, 3-{[(4-Bromophenyl)methyl]amino}-2-(3-methoxy-4-methylphenyl)-3H,4H-pyrido[2,3-d]pyrimidin-4-one]
≤ 10 | COc1cc(-c2nc3ncccc3c(=O)n2NCc2ccc(Cl)cc2)ccc1C [Example 14, 3-{[(4-Chlorophenyl)methyl]amino}-2-(3-methoxy-4-methylphenyl)-3H,4H-pyrido[2,3-d]pyrimidin-4-one]
≤ 10 | COc1cc(-c2nc3ncccc3c(=O)n2NCc2ccc(Cl)cc2)ccc1O [Example 15, 3-{[(4-Chlorophenyl)methyl]amino}-2-(4-hydroxy-3-methoxyphenyl)-3H,4H-pyrido[2,3-d]pyrimidin-4-one]
≤ 10 | COc1cncc(-c2nc3cnccc3c(=O)n2NCc2ccc(Cl)cc2)c1 [Example 16, 3-{[(4-Chlorophenyl)methyl]amino}-2-(5-methoxypyridin-3-yl)-3H,4H-pyrido[3,4-d]pyrimidin-4-one]
≤ 10 | O=c1c2ccncc2nc(-c2ccc(F)cc2)n1NCc1ccc(Br)cc1 [Example 17, 3-{[(4-Bromophenyl)methyl]amino}-2-(4-fluorophenyl)-3H,4H-pyrido[3,4-d]pyrimidin-4-one]

EC50 [µM] | Structure (SMILES)
≤ 10 | O=c1c2ccncc2nc(-c2cncc(Cl)c2)n1NCc1ccc(Cl)cc1 [Example 18, 3-{[(4-Chlorophenyl)methyl]amino}-2-(5-chloropyridin-3-yl)-3H,4H-pyrido[3,4-d]pyrimidin-4-one]
≤ 10 | Cc1cc(-c2nc3cnccc3c(=O)n2NCc2ccc(Cl)cc2)ccc1[N+](=O)[O-] [Example 19, 3-{[(4-Chlorophenyl)methyl]amino}-2-(3-methyl-4-nitrophenyl)-3H,4H-pyrido[3,4-d]pyrimidin-4-one]
≤ 10 | Cc1cc(-c2nc3cnccc3c(=O)n2NCc2ccc(Cl)cc2)ccc1N [Example 20, 2-(4-Amino-3-methylphenyl)-3-{[(4-chlorophenyl)methyl]amino}-3H,4H-pyrido[3,4-d]pyrimidin-4-one]
≤ 10 | Cc1cc(-c2nc3cnccc3c(=O)n2NCc2ccc(Cl)cc2)ccc1O [Example 21, 3-{[(4-Chlorophenyl)methyl]amino}-2-(4-hydroxy-3-methylphenyl)-3H,4H-pyrido[3,4-d]pyrimidin-4-one]
≤ 10 | COc1cc(-c2nc3cnccc3c(=O)n2NCc2ccc(Cl)cc2)ccc1O [Example 22, 3-{[(4-Chlorophenyl)methyl]amino}-2-(4-hydroxy-3-methoxyphenyl)-3H,4H-pyrido[3,4-d]pyrimidin-4-one]
≤ 10 | O=c1c2cnccc2nc(-c2ccc(F)cc2)n1NCc1ccc(Cl)cc1 [Example 23, 3-{[(4-Chlorophenyl)methyl]amino}-2-(4-fluorophenyl)-3H,4H-pyrido[4,3-d]pyrimidin-4-one]
≤ 10 | O=c1c2ncccc2nc(-c2ccc(F)cc2)n1NCc1ccc(Br)cc1 [Example 25, 3-{[(4-Bromophenyl)methyl]amino}-2-(4-fluorophenyl)-3H,4H-pyrido[3,2-d]pyrimidin-4-one]
≤ 10 | O=c1c2ccsc2nc(-c2ccc(O)cc2)n1NCc1ccc(Br)cc1 [Example 26, 3-{[(4-Bromophenyl)methyl]amino}-2-(4-hydroxyphenyl)-3H,4H-thieno[2,3-d]pyrimidin-4-one]
≤ 10 | COc1cncc(-c2nc3ccsc3c(=O)n2NCc2ccc(Cl)cc2)c1 [Example 27, 3-{[(4-Chlorophenyl)methyl]amino}-2-(5-methoxypyridin-3-yl)-3H,4H-thieno[3,2-d]pyrimidin-4-one]
≤ 10 | COc1cncc(-c2nc3ccsc3c(=O)n2NCC2CCC2)c1 [Example 28, 3-[(Cyclobutylmethyl)amino]-2-(5-methoxypyridin-3-yl)-3H,4H-thieno[3,2-d]pyrimidin-4-one]
≤ 10 | COc1cncc(-c2nc3nccnc3c(=O)n2NCc2ccc(Cl)cc2)c1 [Example 29, 3-{[(4-Chlorophenyl)methyl]amino}-2-(5-methoxypyridin-3-yl)-3,4-dihydropteridin-4-one]
≤ 10 | O=c1c2cncnc2nc(-c2ccc(F)cc2)n1NCc1ccc(Cl)cc1 [Example 30, 3-{[(4-Chlorophenyl)methyl]amino}-2-(4-fluorophenyl)-3H,4H-pyrimido[4,5-d][1,3]diazin-4-one]
≤ 10 | O=c1c2ccsc2nc(-c2ccc(F)cc2)n1NCc1ccc(Br)cc1 [Example 31, 3-{[(4-Bromophenyl)methyl]amino}-2-(4-fluorophenyl)-3H,4H-thieno[2,3-d]pyrimidin-4-one]
≤ 10 | O=c1c2ccsc2nc(-c2ccc(F)cc2)n1NCc1ccc(Cl)cc1 [Example 32, 3-{[(4-Chlorophenyl)methyl]amino}-2-(4-fluorophenyl)-3H,4H-thieno[2,3-d]pyrimidin-4-one]
≤ 10 | O=c1c2ccsc2nc(-c2ccc(F)cc2)n1NCc1ccc(Cl)c(Cl)c1 [Example 33, 3-{[(3,4-Dichlorophenyl)methyl]amino}-2-(4-fluorophenyl)-3H,4H-thieno[2,3-d]pyrimidin-4-one]
≤ 10 | COc1cncc(-c2nc3sccc3c(=O)n2NCc2ccc(Cl)cc2)c1 [Example 34, 3-{[(4-Chlorophenyl)methyl]amino}-2-(5-methoxypyridin-3-yl)-3H,4H-thieno[2,3-d]pyrimidin-4-one]
